{"source": "patent US20080234347A1", "about": "“METHOD FOR TREATING CB2 RECEPTOR MEDIATED PAIN” (priority 2007, published 2008)", "key": {"male Sprague-Dawley rats [1]": {"test_system": "male Sprague-Dawley rats", "experiment": "Carrageenan model of inflammatory pain, radiant heat paw withdrawal, compound given after carrageenan (Example 2)", "type": "in vivo, rat", "settings": "read thirty minutes after compound, mean ± SEM", "experimental": "(§1) To assess the ability of test compounds to reverse thermal hyperalgesia, baseline response latencies on a radiant heat (RH) paw stimulator were obtained before an intraplantar injection of carrageenan-λ (200 μL) in male Sprague-Dawley rats (250-350 g in treatment groups of […] each). Only withdrawal responses that were quick hind paw movements (with or without licking of the hind paw) were recorded. Paw movements associated with locomotion or a shifting of weight were not considered a withdrawal response.\n(§2) The weight of each animal was recorded on the day of the experiment. Each animal was placed on a warm (approx. body temperature, 30° C.) glass surface and allowed to acclimate to the test chamber for approximately 10-15 minutes. A radiant thermal stimulus (beam of light) was then focused on the sole of each hind paw in turn, and an initial (baseline) response time to thermal stimuli was recorded for each animal. The stimulus intensity (radiant heat at a setting of 5 Amps) that produced 10-15 sec baseline withdrawal latencies was used and a maximum cutoff of 20 sec was imposed. The light stimulus was automatically shut off by a photoelectric relay when the foot moved or when the cut-off time limit was reached.\nThe experiment of Example 1 was repeated with the exception that animals were first administered 1% carrageenan (200 μL in sterile saline) subcutaneously into the sub-plantar tissue of the left hind paw to stimulate an acute inflammatory reaction.\nTwo and a half hours later, withdrawal latencies were assessed (‘post-Cg’). One treatment group (7 animals each) was then injected i.p. with vehicle (5% DMSO and 5% Tween-80 in sterile saline). The other treatment groups (8 animals each) were injected i.p. with 3, 10 or 30 mg/kg Compound 7. Thirty minutes after test compound administration withdrawal latencies were recorded."}, "male Sprague-Dawley rats [2]": {"test_system": "male Sprague-Dawley rats", "experiment": "Carrageenan model of inflammatory pain, radiant heat paw withdrawal, compound given before carrageenan (Example 1)", "type": "in vivo, rat", "settings": "1 h before 1% carrageenan, mean ± SEM, cutoff 20 sec", "experimental": "Intraplantar injection of carrageenan (Cg) in a rodent produces pronounced hypersensitivity to both thermal and mechanical stimuli. The effects of carrageenan are maximal 2-4 hr after administration.\nas §1, §2\nOne treatment group (8 animals each) was injected i.p. with vehicle (5% DMSO and 5% Tween-80 in sterile saline). The other treatment groups (8 animals each) were injected i.p. with 3, 10 or 30 mg/kg Compound 7.\nOne hour later, withdrawal latencies for the animals administered vehicle were recorded. After assessment, all animals were administered 1% carrageenan (200 μL in sterile saline) subcutaneously into the sub-plantar tissue of the left hind paw to stimulate an acute inflammatory reaction. Three hours later, the response time of the animals to the thermal stimulus was evaluated."}, "[3]": {"test_system": "Rats (male Sprague Dawley)", "experiment": "Visceral hyperalgesia model, colorectal distension after zymosan colitis", "type": "in vivo, rat", "settings": "± SEM", "experimental": "This protocol uses barostat-controlled, isobaric colorectal distensions (CRD) in rats to evaluate the potency and efficacy of test compounds in treating visceral hyperalgesia.\nRats (male Sprague Dawley (275-350 g; CD(SD); Charles River Labs) are housed 2 to 4 animals per cage in a temperature and humidity controlled room with a 12 hr/12 hr light/dark cycle, with ad libitum access to food and water.\nOne day after release from quarantine, the animals were acclimated to progressively longer (30 min and 4 hr later, 45 min) periods of simple restraint in plexiglas devices (G-3, rat ECU; Braintree Scientific; Braintree Mass.). The animals were returned to their home cages overnight. The next day they were acclimated in the restraint device for 60 min in the morning. 4 hrs later, the animals were lightly anesthetized with 70% CO2:30% O2. A highly compliant, 4 cm long polyethylene balloon, lubricated with K-Y Jelly was then inserted via the anus into the rectum and distal colon. The balloon was positioned such that the aboral end was 1 cm from the anus and was secured in place by taping the balloon catheter to the base of the tail. The catheter was connected to a computerized barostat that controlled the inflation of the balloon and the resulting colorectal distension. The balloon pressure, representing intracolonic pressure, was continuously recorded.\nCRD in conscious animals elicits a reflex visceromotor response consisting of contraction of the anterior abdominal wall muscles (Ness T J and Gebhart G F, Colorectal distension as a noxious visceral stimulus: physiologic and pharmacologic characterization of pseudaffective reflexes in the rat, Brain Res., (1988), 450: 153-169). Contraction of these muscles increases intraabdominal pressure and subsequently increases intracolonic pressure. Changes in intracolonic pressure are transduced through the same balloon used to deliver the CRD. The manometric endpoint has recently been reported to mimic electromyographic responses recorded from anterior abdominal wall muscles in rats (Tammpere A, Brusberg M, Axenborg J, Hirsch I, Larsson H and Lindstrom E, Evaluation of pseudo-affective responses to noxious colorectal distension in rats by manometric recordings, Pain, (2005), 116: 220-226)\nStimulus-response data were obtained by delivering two series of 20 sec ramp (15, 30, 45, 60, 75 mmHg) distensions at four-minute intervals and recording the manometric response as follows: the intracolonic pressure signal is passed through a digital 1 Hz highpass filter, rectified and the integral of the initial 15 seconds of the CRD subjected to baseline subtraction (the 15 sec immediately preceding balloon distension); the responses at each distending pressure are averaged to obtain a control stimulus/response curve for each animal. The colorectal balloons were then removed and the animals were returned to their home cages.\nThe following morning, one treatment group (4 animals) was injected i.p. with 10 mg/kg Compound 7 (solubilized in 5% DMSO and 5% Tween-80 in sterile saline).\nOne hour later, an acute colitis was induced in all treatment groups by the intracolonic instillation of a 1.5 mL bolus of 2.5% (w/v) zymosan A (from Saccharomyces cerevisiae; Sigma Chemical Co., St. Louis) in 30% ethanol (under light 70% CO2:30% O2 anesthesia). Four hours later, the animals were lightly anesthetized and the colorectal balloons inserted as on the previous day for controlled distensions. The identical CRD stimuli was applied and manometric responses were recorded and analyzed as described for the control phase of the experiment.\nThe animals in one treatment group (4 animals) were then subcutaneously (s.c.) dosed with 1 mg/kg morphine. As a comparator for analgesic response, animals in another treatment group (9 animals) were dosed s.c. with 3 mg/kg morphine 4 hrs after colitis initiation and 30 min prior to CRD."}, "Male CD-1 mice": {"test_system": "Male CD-1 mice", "experiment": "Hot-plate nociception test", "type": "in vivo, mouse", "settings": "30 min after dosing, 48° C. hot plate, cut-off 90 sec, ± SEM", "description": "The hot-plate test originally described by Eddy and Leimbach (J. Pharmacol. Exp. Ther. 107:385-393, 1953) with minor modifications (e.g., O'Callaghan and Holtzman, J. Pharmacol. Exp. Ther. 192: 497-505, 1975) was used to ascertain the analgesic potential of investigated compounds. The hot plate analgesia meter used for these studies was produced by Columbus Instruments International (Columbus, Ohio).\nMale CD-1 mice (30-35 g) were weighed, placed in a plastic box with wood chips and allowed to acclimate before testing. An individual mouse was placed on a 48° C. heated surface and locomotion on the plate was constrained by a glass cylinder. The time interval between placement and a shaking, licking or tucking of either hind-paw (nociceptive response) was recorded as the Baseline measurement. Animals were removed from the heated plate immediately after responding or after a maximum of 40 sec to prevent tissue damage. Each mouse was tested only once.\nOne treatment group (9 animals each) was then injected i.p. with vehicle (5% DMSO and 5% Tween-80 in sterile saline). The other treatment groups (8 animals each) were injected i.p. with 10 or 30 mg/kg Compound I. Thirty minutes after test compound administration, each animal was assessed for a response with a maximum cut-off of 90 sec. […]"}, "CB2 receptor": {"biological_target": "T1, CB2 receptor (Rattus norvegicus, UniProt Q9QZN9)", "T1 sequence (Q9QZN9 1-360)": "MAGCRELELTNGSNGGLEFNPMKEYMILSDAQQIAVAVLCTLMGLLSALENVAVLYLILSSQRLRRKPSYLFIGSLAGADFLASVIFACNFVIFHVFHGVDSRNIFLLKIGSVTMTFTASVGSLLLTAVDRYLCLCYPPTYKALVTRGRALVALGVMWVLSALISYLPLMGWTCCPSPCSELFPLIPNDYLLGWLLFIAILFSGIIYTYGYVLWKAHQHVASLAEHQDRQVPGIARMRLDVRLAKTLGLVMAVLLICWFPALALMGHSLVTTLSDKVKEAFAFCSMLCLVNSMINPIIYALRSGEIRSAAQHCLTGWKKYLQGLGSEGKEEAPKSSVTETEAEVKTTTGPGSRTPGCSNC", "settings": "background literature statement; cited from earlier work"}}}
{"compound": "C[C@H](NS(=O)(=O)/C=C/c1n[nH]c2c1CCCC/C2=C\\c1ccc(Cl)cc1)c1ccccc1", "note": "[Compound 7, (2E,8E)-2-[8-(4-chloro-benzylidene)-1,4,5,6,7,8-hexahydro-cycloheptapyrazol-3-yl]-ethenesulfonic acid [(1S)-1-phenyl-ethyl]-amide]", "values": [{"measurement": "withdrawal latency to radiant thermal stimulus, 0.5 hrs post Cg", "setting": "male Sprague-Dawley rats [1]; 3 mg/kg i.p. given 2.5 h after carrageenan", "result": "5.30 ± 0.48", "unit": "s"}, {"measurement": "withdrawal latency to radiant thermal stimulus, 0.5 hrs post Cg", "setting": "male Sprague-Dawley rats [1]; 10 mg/kg i.p. given 2.5 h after carrageenan", "result": "5.33 ± 0.48", "unit": "s"}, {"measurement": "withdrawal latency to radiant thermal stimulus, 0.5 hrs post Cg", "setting": "male Sprague-Dawley rats [1]; 30 mg/kg i.p. given 2.5 h after carrageenan", "result": "4.53 ± 0.39", "unit": "s"}, {"measurement": "withdrawal latency to radiant thermal stimulus, 3 hrs post Cg administration", "setting": "male Sprague-Dawley rats [2]; 3 mg/kg i.p.", "result": "8.44 ± 1.88", "unit": "s"}, {"measurement": "withdrawal latency to radiant thermal stimulus, 3 hrs post Cg administration", "setting": "male Sprague-Dawley rats [2]; 10 mg/kg i.p.", "result": "7.87 ± 1.01", "unit": "s"}, {"measurement": "withdrawal latency to radiant thermal stimulus, 3 hrs post Cg administration", "setting": "male Sprague-Dawley rats [2]; 30 mg/kg i.p.", "result": "6.05 ± 0.83", "unit": "s"}, {"measurement": "manometric response, percent of initial (control) response", "setting": "[3]; 15 mmHg distension, 10 mg/kg i.p. 1 h before zymosan colitis, n = 4", "result": "245.7 ± 87.76", "unit": "%"}, {"measurement": "manometric response, percent of initial (control) response", "setting": "[3]; 30 mmHg distension, 10 mg/kg i.p. 1 h before zymosan colitis, n = 4", "result": "527.2 ± 196.8", "unit": "%"}, {"measurement": "manometric response, percent of initial (control) response", "setting": "[3]; 45 mmHg distension, 10 mg/kg i.p. 1 h before zymosan colitis, n = 4", "result": "301.3 ± 104.2", "unit": "%"}, {"measurement": "manometric response, percent of initial (control) response", "setting": "[3]; 60 mmHg distension, 10 mg/kg i.p. 1 h before zymosan colitis, n = 4", "result": "243.7 ± 66.53", "unit": "%"}, {"measurement": "manometric response, percent of initial (control) response", "setting": "[3]; 75 mmHg distension, 10 mg/kg i.p. 1 h before zymosan colitis, n = 4", "result": "230.9 ± 51.95", "unit": "%"}]}
{"compound": "CN1CC[C@]23c4c5ccc(O)c4O[C@H]2[C@@H](O)C=C[C@H]3[C@H]1C5", "note": "[Morphine, morphine, reference compound]", "values": [{"measurement": "manometric response, percent of initial (control) response", "setting": "[3]; 15 mmHg distension, morphine 3 mg/kg s.c. 4 hrs after colitis initiation, 30 min prior to CRD, n = 9", "result": "96.34 ± 12.53", "unit": "%"}, {"measurement": "manometric response, percent of initial (control) response", "setting": "[3]; 30 mmHg distension, morphine 3 mg/kg s.c. 4 hrs after colitis initiation, 30 min prior to CRD, n = 9", "result": "69.96 ± 11.21", "unit": "%"}, {"measurement": "manometric response, percent of initial (control) response", "setting": "[3]; 45 mmHg distension, morphine 3 mg/kg s.c. 4 hrs after colitis initiation, 30 min prior to CRD, n = 9", "result": "61.69 ± 8.72", "unit": "%"}, {"measurement": "manometric response, percent of initial (control) response", "setting": "[3]; 60 mmHg distension, morphine 3 mg/kg s.c. 4 hrs after colitis initiation, 30 min prior to CRD, n = 9", "result": "56.33 ± 8.23", "unit": "%"}, {"measurement": "manometric response, percent of initial (control) response", "setting": "[3]; 75 mmHg distension, morphine 3 mg/kg s.c. 4 hrs after colitis initiation, 30 min prior to CRD, n = 9", "result": "63.18 ± 9.19", "unit": "%"}]}
{"compound": "O=C(N[C@H](CO)c1ccccc1)c1n[nH]c2c1CCCCC2Cc1cccc(Cl)c1", "note": "(stereo partly drawn) [Compound 1, 8-(3-chloro-benzyl)-1,4,5,6,7,8-hexahydro-cycloheptapyrazole-3-carboxylic acid [(1S)-2-hydroxy-1-phenyl-ethyl]-amide]", "values": [{"measurement": "% MPE (percent maximal effect)", "setting": "Male CD-1 mice; 10 mg/kg i.p.", "result": "20.58 ± 9.27", "unit": "% MPE"}, {"measurement": "% MPE (percent maximal effect)", "setting": "Male CD-1 mice; 30 mg/kg i.p.", "result": "4.25 ± 10.65", "unit": "% MPE"}]}
{"compound": "CN1CCCCC1Cn1cc(C(=O)c2cc([N+](=O)[O-])ccc2I)c2ccccc21", "note": "(stereo not shown) [AM1241]", "values": [{"measurement": "antinociception to thermal stimuli", "setting": "CB2 receptor", "result": "produces antinociception to thermal stimuli"}]}
